This is an account of results in patent US11773078B2, “Furin inhibitors” (Glaxosmithkline Intellectual Property Development Limited, priority 2018, dated 2023).

Counter-ions that a name gives are not always drawn.

The target of experiment [1] is T1, furin (endogenous protease) in U20S cells (Homo sapiens, UniProt P09958).
T1 construct: the endogenous protease cleaves GFP; endogenous in cells; host or cells: U2OS cells transduced with a BacMam reporter
Nature of the experiment: Furin cell-based assay (image-based, Golgi-targeted GFP with BMP10 furin/PCSK cleavage site).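 Note: Read-out is mean GFP fluorescence of Golgi puncta per cell by high-content imaging, retained when furin inhibited, over an eleven-point 0.00017–10 µM series, four-parameter fit.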 The following applies: 24-hour incubation, read-out: furin golgi cell pXC50 (converted).

Experiment [2] concerns the target T2, Furin (108-574-Tev-Flag-His) enzyme (Homo sapiens, UniProt P09958).
T2 construct: Furin (108-574-Tev-Flag-His) enzyme was expressed and purified from CHO cells; TEV cleavage site (C); FLAG (C); His (C); made in house; host or cells: CHO cells
The experiment in a line: Furin enzyme assay. The class given is biochemical. An outline of the steps:
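Compounds ran as 11-point threefold dilutions (0.00017–10 μM final) against 40 pM furin, purified from CHO cells, for 2 h at room temperature. Buffer: 100 mM HEPES pH7.5 with 1 mM CaCl2 and 0.005% Triton X-100. Envision readout. Four-parameter curve gives pXC50.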

T1 sequence (P09958 108-794): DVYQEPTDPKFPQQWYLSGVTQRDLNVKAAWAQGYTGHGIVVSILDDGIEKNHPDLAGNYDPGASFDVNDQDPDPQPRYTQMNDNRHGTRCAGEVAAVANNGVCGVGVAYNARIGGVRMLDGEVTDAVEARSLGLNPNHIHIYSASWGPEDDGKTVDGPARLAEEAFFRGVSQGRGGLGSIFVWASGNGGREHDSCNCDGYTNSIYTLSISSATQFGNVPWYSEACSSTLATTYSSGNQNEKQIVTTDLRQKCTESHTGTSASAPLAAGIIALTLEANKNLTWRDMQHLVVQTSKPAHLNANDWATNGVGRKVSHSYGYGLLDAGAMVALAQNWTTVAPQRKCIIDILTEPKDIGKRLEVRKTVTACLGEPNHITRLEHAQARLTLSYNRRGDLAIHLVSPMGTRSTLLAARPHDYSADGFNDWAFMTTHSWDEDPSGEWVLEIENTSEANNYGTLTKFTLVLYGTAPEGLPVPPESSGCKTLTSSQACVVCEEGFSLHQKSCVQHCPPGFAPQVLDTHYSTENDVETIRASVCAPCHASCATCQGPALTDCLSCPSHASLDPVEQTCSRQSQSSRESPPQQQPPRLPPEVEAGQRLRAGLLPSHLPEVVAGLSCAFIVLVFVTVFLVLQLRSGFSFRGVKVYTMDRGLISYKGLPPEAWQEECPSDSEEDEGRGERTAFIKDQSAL
T2 sequence (P09958 108-574): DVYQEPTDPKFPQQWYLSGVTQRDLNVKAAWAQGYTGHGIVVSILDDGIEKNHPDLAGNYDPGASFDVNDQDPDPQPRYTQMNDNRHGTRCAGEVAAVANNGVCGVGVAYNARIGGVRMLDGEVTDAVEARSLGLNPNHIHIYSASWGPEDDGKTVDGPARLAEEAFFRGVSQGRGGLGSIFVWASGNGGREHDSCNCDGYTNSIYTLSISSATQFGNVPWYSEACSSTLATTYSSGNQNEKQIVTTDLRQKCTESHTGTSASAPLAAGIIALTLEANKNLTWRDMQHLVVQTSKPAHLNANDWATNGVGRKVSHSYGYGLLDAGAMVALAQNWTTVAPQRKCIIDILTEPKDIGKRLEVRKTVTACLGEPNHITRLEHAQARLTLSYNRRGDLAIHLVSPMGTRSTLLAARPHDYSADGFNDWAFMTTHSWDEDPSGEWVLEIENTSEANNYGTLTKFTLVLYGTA

As for `CN1CCN(c2ccc(Oc3nc(-c4cc(Cl)cc(Cl)c4)cc(CN4CCC(CC(=O)O)CC4)c3F)cn2)CC1` [Example 377, 2-(1-((6-(3,5-Dichlorophenyl)-3-fluoro-2-((6-(4-methylpiperazin-1-yl)pyridin-3-yl)oxy)pyridin-4-yl)methyl)piperidin-4-yl)acetic acid, 4 hydrochloride], the EC50 in experiment [1] is 25.1 nM. The “furin enzyme pIC50” value in experiment [2] is 8.6.
As to `CN1C2CCC1CN(c1ncc(Oc3nc(-c4cc(Cl)cc(Cl)c4)cc(CN4CCC(CC(=O)O)CC4)c3F)cn1)C2` [Example 378, 2-(1-((6-(3,5-dichlorophenyl)-3-fluoro-2-((2-(8-methyl-3,8-diazabicyclo[3.2.1]octan-3-yl)pyrimidin-5-yl)oxy)pyridin-4-yl)methyl)piperidin-4-yl)acetic acid], in experiment [1], the EC50 was 6.31 nM. Moreover, the IC50 in experiment [2] (read-out: furin enzyme pIC50 (converted)) was 2 nM.
For `CN1CCN(c2ncc(Oc3nc(-c4cc(Cl)cc(Cl)c4)cc(CN4CCC(CC(=O)O)CC4)c3F)cn2)CC1` [Example 379, 2-(1-((6-(3,5-dichlorophenyl)-3-fluoro-2-((2-(4-methylpiperazin-1-yl)pyrimidin-5-yl)oxy)pyridin-4-yl)methyl)piperidin-4-yl)acetic acid], the EC50 in experiment [1] was 20 nM. The “furin enzyme pIC50” value in experiment [2] is listed as 8.7.
For `Cc1nc(N2CCN(C)CC2)ncc1Oc1nc(-c2cc(Cl)cc(Cl)c2)cc(CN2CCC(CC(=O)O)CC2)c1F` [Example 380, 2-(1-((6-(3,5-dichlorophenyl)-3-fluoro-2-((4-methyl-2-(4-methylpiperazin-1-yl)pyrimidin-5-yl)oxy)pyridin-4-yl)methyl)piperidin-4-yl)acetic acid], in that order: 63.1 nM and 9.6.
For `CC(=O)NCC1CCN(Cc2cc(-c3cc(Cl)cc(Cl)c3)nc(Oc3cnc(N4CCN(CCC(C)C(=O)O)CC4)nc3)c2F)CC1` (centres unmarked) [Example 381, 4-(4-(5-((4-((4-(acetamidomethyl)piperidin-1-yl)methyl)-6-(3,5-dichlorophenyl)-3-fluoropyridin-2-yl)oxy)pyrimidin-2-yl)piperazin-1-yl)-2-methylbutanoic acid], the EC50 in experiment [1] is 10 nM. The “furin enzyme pIC50” value in experiment [2] stood at 8.9.
For `O=C(O)CC1CCN(Cc2cc(-c3cc(Cl)cc(Cl)c3)nc(Oc3cnc(N4CC5CCC(C4)N5)nc3)c2F)CC1` [Example 382, 2-(1-((2-((2-(3,8-diazabicyclo[3.2.1]octan-3-yl)pyrimidin-5-yl)oxy)-6-(3,5-dichlorophenyl)-3-fluoropyridin-4-yl)methyl)piperidin-4-yl)acetic acid], in that order: 6.31 nM and 8.6.
For `Cc1nc(N2CCN(C)CC2)ccc1Oc1nc(-c2cc(Cl)cc(Cl)c2)cc(CN2CCC(CC(=O)O)CC2)c1F` [Example 383, 2-(1-((6-(3,5-dichlorophenyl)-3-fluoro-2-((2-methyl-6-(4-methylpiperazin-1-yl)pyridin-3-yl)oxy)pyridin-4-yl)methyl)piperidin-4-yl)acetic acid], in that order: 63.1 nM and 8.4.
For `CN1CCN(c2ccc(Oc3nc(-c4cc(Cl)cc(Cl)c4)cc(CN4CCC(CC(=O)O)CC4)c3F)nn2)CC1` [Example 384, 2-(1-((6-(3,5-dichlorophenyl)-3-fluoro-2-((6-(4-methylpiperazin-1-yl)pyridazin-3-yl)oxy)pyridin-4-yl)methyl)piperidin-4-yl)acetic acid], in that order: 25.1 nM and 8.4.
For the compound `COC(=O)CCN1CCN(c2ccc(Oc3cc(CN4CCC(CNC(C)=O)CC4)cc(-c4cc(Cl)cc(Cl)c4)n3)cn2)CC1` [Example 385, Methyl 3-(4-(5-((4-((4-(Acetamidomethyl)piperidin-1-yl)methyl)-6-(3,5-dichlorophenyl)pyridin-2-yl)oxy)pyridin-2-yl)piperazin-1-yl)propanoate], in experiment [1], the EC50 is 12.6 nM. In experiment [2], the “furin enzyme pIC50” value was 8.4.
For `Cc1c(CN2CCC(CC(=O)O)CC2)cc(-c2cc(Cl)cc(Cl)c2)nc1Oc1ccc(N2CCN(C)CC2)nc1` [Example 386, 2-(1-((6-(3,5-Dichlorophenyl)-3-methyl-2-((6-(4-methylpiperazin-1-yl)pyridin-3-yl)oxy)pyridin-4-yl)methyl)piperidin-4-yl)acetic acid, 4 hydrochloride], in that order: 10 nM and 8.4.
Take `O=C(O)CC1CCN(Cc2cc(Oc3cnc(N4CCN(Cc5cnn[nH]5)CC4)nc3)nc(-c3cc(Cl)cc(Cl)c3)c2)CC1` [Example 387, 2-(1-((2-((2-(4-((1H-1,2,3-Triazol-5-yl)methyl)piperazin-1-yl)pyrimidin-5-yl)oxy)-6-(3,5-dichlorophenyl)pyridin-4-yl)methyl)piperidin-4-yl)acetic acid]: in experiment [1], the EC50 is 25.1 nM. For the same compound, the “furin enzyme pIC50” value in experiment [2] is listed as 8.5.
Take `CN1CCN(c2ncc(N(C)c3cc(CN4CCC(CC(=O)O)CC4)cc(-c4cc(Cl)cc(Cl)c4)n3)cn2)CC1` [Example 388, 2-(1-((2-(3,5-Dichlorophenyl)-6-(methyl(2-(4-methylpiperazin-1-yl)pyrimidin-5-yl)amino)pyridin-4-yl)methyl)piperidin-4-yl)acetic acid, 4 hydrochloride]: the EC50 in experiment [1] was 50.1 nM. Further, in experiment [2], the “furin enzyme pIC50” value was 8.1.
For `CCN(c1cnc(N2CCN(C)CC2)nc1)c1cc(CN2CCC(CC(=O)O)CC2)cc(-c2cc(Cl)cc(Cl)c2)n1` [Example 389, 2-(1-((2-(3,5-Dichlorophenyl)-6-(ethyl(2-(4-methylpiperazin-1-yl)pyrimidin-5-yl)amino)pyridin-4-yl)methyl)piperidin-4-yl)acetic acid], in that order: 63.1 nM and 8.2.
In the case of `CC(=O)NCC1CCN(Cc2cc(Oc3cnc(N4CCN(CCC(N)=O)CC4)cn3)nc(-c3cc(Cl)cc(Cl)c3)c2)CC1` [Example 391, 3-(4-(5-((4-((4-(acetamidomethyl)piperidin-1-yl)methyl)-6-(3,5-dichlorophenyl)pyridin-2-yl)oxy)pyrazin-2-yl)piperazin-1-yl)propanamide], in experiment [1], the EC50 is 6.31 nM. For the same compound, in experiment [2], the “furin enzyme pIC50” value was determined as 8.7.
In the case of `CCC(=O)NCC1CCN(Cc2cc(Oc3cnc(N4CCN(CCC(C)C(=O)O)CC4)cn3)nc(-c3cc(Cl)cc(Cl)c3)c2)CC1` (centres unmarked) [Example 392, 4-(4-(5-((6-(3,5-dichlorophenyl)-4-((4-(propionamidomethyl)piperidin-1-yl)methyl)pyridin-2-yl)oxy)pyrazin-2-yl)piperazin-1-yl)-2-methylbutanoic acid], the EC50 in experiment [1] is 15.8 nM. Moreover, the “furin enzyme pIC50” value in experiment [2] turned out to be 9.
On to `CC(=O)NCC1CCN(Cc2cc(Oc3cnc(N4CCN(C(C)CO)CC4)cn3)nc(-c3cc(Cl)cc(Cl)c3)c2)CC1` (centres unmarked) [Example 393, N-((1-((2-(3,5-dichlorophenyl)-6-((5-(4-(1-hydroxypropan-2-yl)piperazin-1-yl)pyrazin-2-yl)oxy)pyridin-4-yl)methyl)piperidin-4-yl)methyl)acetamide], for which the EC50 in experiment [1] is 2.51 nM. Moreover, the “furin enzyme pIC50” value in experiment [2] is recorded as 9.2.
Consider `CNC(=O)NCC1CCN(Cc2cc(Oc3cnc(N4CCN(C)CC4)cn3)nc(-c3cc(Cl)cc(Cl)c3)c2)CC1` [Example 394, 1-((1-((2-(3,5-dichlorophenyl)-6-((5-(4-methylpiperazin-1-yl)pyrazin-2-yl)oxy)pyridin-4-yl)methyl)piperidin-4-yl)methyl)-3-methylurea], for which the EC50 in experiment [1] was 6.31 nM. Further, the “furin enzyme pIC50” value in experiment [2] is 9.
Consider `COC(=O)NCC1CCN(Cc2cc(Oc3cnc(N4CCN(C)CC4)cn3)nc(-c3cc(Cl)cc(Cl)c3)c2)CC1` [Example 395, methyl ((1-((2-(3,5-dichlorophenyl)-6-((5-(4-methylpiperazin-1-yl)pyrazin-2-yl)oxy)pyridin-4-yl)methyl)piperidin-4-yl)methyl)carbamate], for which the EC50 in experiment [1] is 31.6 nM. Also, the “furin enzyme pIC50” value in experiment [2] was found to be 9.2.
For `CC(=O)NCC1CCN(Cc2cc(Oc3cnc(N4CCN(CCC(C)C(=O)O)CC4)cn3)nc(-c3cc(Cl)cc(Cl)c3)c2)CC1` (centres unmarked) [Example 396, 4-(4-(5-((4-((4-(acetamidomethyl)piperidin-1-yl)methyl)-6-(3,5-dichlorophenyl)pyridin-2-yl)oxy)pyrazin-2-yl)piperazin-1-yl)-2-methylbutanoic acid], in that order: 10 nM and 10.3.
On to `CN1CCCN(c2ncc(Oc3cc(CN4CC[C@@H]5[C@H](CC4)[C@H]5C(=O)O)cc(-c4cc(Cl)cc(Cl)c4)n3)cn2)CC1` [Example 397, (1R,7S,8r)-4-((2-(3,5-Dichlorophenyl)-6-((2-(4-methyl-1,4-diazepan-1-yl)pyrimidin-5-yl)oxy)pyridin-4-yl)methyl)-4-azabicyclo[5.1.0]octane-8-carboxylic acid, 4 hydrochloride], for which the EC50 in experiment [1] was 25.1 nM. Besides, in experiment [2], the “furin enzyme pIC50” value was found to be 9.
For the compound `CN1C2CCC1CN(c1ncc(Oc3cc(CN4CCC(CC(=O)O)CC4)cc(-c4cc(Cl)cc(Cl)c4)n3)cn1)C2` [Example 398, 2-(1-((2-(3,5-dichlorophenyl)-6-((2-(8-methyl-3,8-diazabicyclo[3.2.1]octan-3-yl)pyrimidin-5-yl)oxy)pyridin-4-yl)methyl)piperidin-4-yl)acetic acid], in experiment [1], the EC50 was 6.31 nM. In addition, in experiment [2], the “furin enzyme pIC50” value is 8.9.
For `O=C(O)CC1CCN(Cc2cc(Oc3cnc(N4CCNCC(F)C4)nc3)nc(-c3cc(Cl)cc(Cl)c3)c2)CC1` (centres unmarked) [Example 399, 2-(1-((2-(3,5-dichlorophenyl)-6-((2-(6-fluoro-1,4-diazepan-1-yl)pyrimidin-5-yl)oxy)pyridin-4-yl)methyl)piperidin-4-yl)acetic acid], in that order: 39.8 nM and 8.8.
